According to patent US20220395500A1, “SMALL MOLECULE ACTIVATORS OF INTERFERON REGULATORY FACTOR 3 AND METHODS OF USE THEREOF” (Neuralexo, Inc., priority 2020, published 2022):

Key:
[1] = THP1-Dual cytotoxicity (Cell Titer Glo, ATP); assay type: cell-based, human; settings: human, THP1-Dual cells, read-out: Thp1 cytotox CC50
Source text: FIG. 9C is a CC50 (50% cytotoxic concentration) graph of AV-C dependent IRF activation in THP1-Dual cells, determined with an 8-point dose response experiment. Cell viability was monitored based on quantitation of ATP present, as an indicator of metabolically active cells, where luminescence is proportional to the amount of ATP present, using Cell-Titer Glo (Promega).
The OTRADI Small Molecule Library of approximately 246,000 diverse compounds (see below for description) was screened using the THP1-Dual based HTS platform described above. All transfer steps in the screen are fully automated, thus reducing variability. Primary screening included a single data point or dose for each molecule. After data normalization was applied for each assay run, “hit” selection was performed on the plates that pass the quality control (QC) criterion. Hits were defined as samples having values above the activity cutoff determined based on noise level of the assay to reduce false positive rates. In the pilot study discussed above this activity value was >3σ above the ISRE mean with the added criteria of NFκB activation being lower than […] from the mean to identify IRF selective compounds. The ratio of ISRE:NFκB activity was also calculated as a selectivity index for prioritizing hit selection. Primary hits underwent secondary screening to determine the 50% effective concentration (EC50) and 50% cytotoxic concentration (CC50) of these agents using an 8-point dose-response curve in the human THP1-Dual cells. Cytotoxicity was measured in the plate using Cell Titer Glo (Promega). Identified candidate compounds were further screened (orthogonal screen) for cross species activity in the validated mouse J774-Dual assay using an 8-point dose-response format to determine EC50 and CC50 values as well as ISRE:NFκB ratios. A general process flow for the experimental design laid out above is depicted at FIG. 12.

[2] = J774-Dual cytotoxicity; assay type: cell-based, mouse; settings: mouse, J774-Dual cells, read-out: J774 cytotox CC50
Description: The OTRADI Small Molecule Library of approximately 246,000 diverse compounds (see below for description) was screened using the THP1-Dual based HTS platform described above. All transfer steps in the screen are fully automated, thus reducing variability. Primary screening included a single data point or dose for each molecule. After data normalization was applied for each assay run, “hit” selection was performed on the plates that pass the quality control (QC) criterion. Hits were defined as samples having values above the activity cutoff determined based on noise level of the assay to reduce false positive rates. […] The ratio of ISRE:NFκB activity was also calculated as a selectivity index for prioritizing hit selection. Primary hits underwent secondary screening to determine the 50% effective concentration (EC50) and 50% cytotoxic concentration (CC50) of these agents using an 8-point dose-response curve in the human THP1-Dual cells. Cytotoxicity was measured in the plate using Cell Titer Glo (Promega). Identified candidate compounds were further screened (orthogonal screen) for cross species activity in the validated mouse J774-Dual assay using an 8-point dose-response format to determine EC50 and CC50 values as well as ISRE:NFκB ratios. A general process flow for the experimental design laid out above is depicted at FIG. 12.

| SMILES | CC50 ([1]; Human Reporter Cell Line) | CC50 ([2]; Mouse Reporter Cell Line) | CC50 ([1]; Human Reporter Cell Line THP1) | CC50 ([2]; Mouse Reporter Cell Line J774) |
| --- | --- | --- | --- | --- |
| O=C(NCCC(=O)N1CCN(C(=O)c2cccs2)CC1)c1ccc(OCc2ccccc2)cc1 [NA-54] | > 25 µM | > 25 µM | – | – |
| O=C(Nc1ccc(N2CCN(C(=O)c3ccco3)CC2)cc1)c1ccccc1F [NA-3] | > 25 µM | > 25 µM | – | – |
| Cc1cc(C(=O)Nc2cc(-c3nc4ccccc4s3)ccc2Cl)ccc1[N+](=O)[O-] [ND-51] | – | – | 22.1 µM | > 25 µM |
| Cc1ccc(C(=O)Nc2cc(-c3nc4cc(C(C)C)ccc4o3)ccc2C)cc1C [ND-9] | – | – | > 25 µM | > 25 µM |
| Cc1ccc(-c2nc3cc(C(C)C)ccc3o2)cc1NC(=O)c1ccc(Cl)cc1 [ND-53] | – | – | > 25 µM | > 25 µM |
| Cc1ccc(-c2nc3cc(C(C)C)ccc3o2)cc1NC(=S)NC(=O)c1cccc(F)c1 [ND-11] | – | – | > 25 µM | > 25 µM |
| O=C(c1ccco1)N1CCN(c2ccccc2)CC1 [NA-5] | > 25 µM | > 25 µM | – | – |
| Cc1ccc(-c2nc3cc(OCCCN4CCCC4)ccc3o2)cc1[N+](=O)[O-] [ND-83] | – | – | > 25 µM | > 25 µM |
| Cc1ccc(-c2nc3cc(C(C)C)ccc3o2)cc1NC(=O)c1cc2ccccc2o1 [ND-12] | – | – | 47.6 µM | > 25 µM |
| COc1ccc(S(=O)(=O)Nc2cc(-c3nc4cc(C)c(C)cc4o3)ccc2C)cc1[N+](=O)[O-] [ND-107] | – | – | > 10 µM | > 10 µM |
| O=C(Nc1ccc(N2CCN(C(=O)c3cccs3)CC2)cc1)c1ccc2c(c1)OCO2 [NA-12] | > 25 µM | > 25 µM | – | – |
| COc1ccc(C(=O)Nc2cccc(-c3nc4ccccc4s3)c2C)cc1[N+](=O)[O-] [ND-90] | – | – | > 25 µM | > 25 µM |
| CCOC(=O)C1=CCCC[C@H]1S(=O)(=O)Nc1ccc(F)cc1Cl [ND-72] | – | – | > 25 µM | > 25 µM |
| O=C(Nc1ccc(N2CCN(C(=O)c3cccc(Cl)c3)CC2)cc1)c1ccc(OCc2ccccc2)cc1 [NA-48] | > 25 µM | > 25 µM | – | – |
| O=C(Nc1ccc(N2CCN(C(=O)c3ccncc3)CC2)cc1)c1ccc(OCc2ccccc2)cc1 [NA-37] | > 25 µM | > 25 µM | – | – |
| Cc1ccc(Cn2cc(CN3CCN(C(=O)c4cccs4)CC3)nn2)cc1 [NA-55] | > 25 µM | > 25 µM | – | – |
| O=C(Nc1ccc(N2CCN(C(=O)c3cccs3)CC2)c(Cl)c1)c1ccc(OCc2ccccc2)cc1 [NA-73] | > 10 µM | > 10 µM | – | – |
| O=C(Nc1ccc(N2CCN(C(=O)c3cccs3)CC2)cc1)c1ccc(N2CCCCC2)c([N+](=O)[O-])c1 [NA-70] | > 10 µM | > 10 µM | – | – |
| O=C(Nc1ccc(N2CCN(C(=O)c3cccs3)CC2)cc1)c1cccc(Oc2ccccc2)c1 [NA-68] | > 10 µM | > 10 µM | – | – |

| SMILES | CC50 ([1]; Human Reporter Cell Line) | CC50 ([2]; Mouse Reporter Cell Line) | CC50 ([1]; Human Reporter Cell Line THP1) | CC50 ([2]; Mouse Reporter Cell Line J774) |
| --- | --- | --- | --- | --- |
| Cc1cc(NC(=O)c2ccc(OCc3ccccc3)cc2)ccc1N1CCN(C(=O)c2cccs2)CC1 [NA-74] | > 10 µM | > 10 µM | – | – |
| COc1cc(C(=O)Nc2cc(-c3nc4cc(C(C)C)ccc4o3)ccc2C)cc(OC)c1OC [ND-14] | – | – | > 25 µM | > 25 µM |
| Cc1cc2nc(-c3c[nH]c4ccccc34)oc2cc1C [ND-108] | – | – | > 10 µM | > 10 µM |
| Cc1ccc(-c2nc3cc(C(C)C)ccc3o2)cc1[N+](=O)[O-] [ND-57] | – | – | > 25 µM | > 25 µM |
| CCOc1ccc(C(=O)Nc2cccc(-c3nc4cc(C(C)C)ccc4o3)c2)cc1[N+](=O)[O-] [ND-17] | – | – | > 25 µM | > 25 µM |
| O=C(Nc1ccc(N2CCN(C(=O)c3ccc(Cl)cc3)CC2)cc1)c1ccc(OCc2ccccc2)cc1 [NA-45] | 10.7 µM | > 25 µM | – | – |
| O=C(c1cccs1)N1CCN(c2ccc(NS(=O)(=O)c3ccc(-c4ccccc4)cc3)cc2)CC1 [NA-69] | > 10 µM | > 10 µM | – | – |
| COc1ccc(C(=O)Nc2cc(-c3nc4cc(C(C)C)ccc4o3)ccc2C)cc1 [ND-10] | – | – | > 25 µM | > 25 µM |
| Cc1cc2nc(-c3ccc(C)c(NC(=O)c4ccc(C(F)(F)F)c([N+](=O)[O-])c4)c3)oc2cc1C [ND-75] | – | – | > 25 µM | > 25 µM |
| CC1=NN(c2ccccc2)C(=O)C1 [ND-77] | – | – | > 25 µM | > 25 µM |
| ClCCCOc1ccc(-c2nc3ccc(OCCCCl)cc3o2)cc1 [ND-73] | – | – | > 25 µM | > 25 µM |
| O=C(Nc1ccc(N2CCN(C(=O)c3cccs3)CC2)cc1)c1ccc(Br)o1 [NA-8] | > 25 µM | > 25 µM | – | – |
| CN(C)CCCOc1ccc(-c2nc3cc(OCCCN4CCCC4)ccc3o2)cc1 [ND-93] | – | – | > 25 µM | > 25 µM |
| Cc1ccc(-c2nc3cc(Cl)ccc3o2)cc1NC(=O)/C=C/c1cccc([N+](=O)[O-])c1 [ND-99] | – | – | > 25 µM | > 25 µM |
| O=C(Nc1ccc(N2CCN(C(=O)c3cccs3)CC2)cc1)c1cncc(-c2ccccc2)c1 [NA-40] | > 25 µM | > 25 µM | – | – |
| CC(=O)N1CCN(c2ccc(NC(=O)c3ccc(OCc4ccccc4)cc3)cc2)CC1 [NA-2] | > 25 µM | > 25 µM | – | – |
| Cc1ccc(-c2nc3cc(NC(=O)c4ccc(C)c([N+](=O)[O-])c4)ccc3o2)cc1 [ND-49] | – | – | 5.52 µM | > 25 µM |
| CCOc1ccc(C(=O)Nc2ccc(N3CCN(C(=O)c4cccs4)CC3)cc2)cc1[N+](=O)[O-] [NA-65] | > 10 µM | > 10 µM | – | – |
| COc1ccc(C(=O)Nc2ccc(OC)cc2OC)cc1 [ND-78] | – | – | > 25 µM | > 25 µM |

| SMILES | CC50 ([1]; Human Reporter Cell Line) | CC50 ([2]; Mouse Reporter Cell Line) | CC50 ([1]; Human Reporter Cell Line THP1) | CC50 ([2]; Mouse Reporter Cell Line J774) |
| --- | --- | --- | --- | --- |
| COc1cccc(Cn2cc(CN3CCN(C(=O)c4cccs4)CC3)nn2)c1 [NA-57] | > 25 µM | > 25 µM | – | – |
| CCOc1ccc(C(=O)Nc2ccc3oc(-c4cccnc4)nc3c2)cc1[N+](=O)[O-] [ND-44] | – | – | > 25 µM | > 25 µM |
| O=C(Nc1ccc(N2CCN(C(=O)c3cccs3)CC2)c(Cl)c1)c1ccc2c(c1)OCCO2 [NA-29] | 65 µM | 45.8 µM | – | – |
| O=C(Nc1ccc(N2CCN(C(=O)c3cccs3)CC2)cc1)c1ccc(Oc2ccccc2)cc1 [NA-26] | > 25 µM | > 25 µM | – | – |
| O=C(Nc1ccc(N2CCN(C(=O)c3cccnc3)CC2)cc1)c1ccc(OCc2ccccc2)cc1 [NA-36] | > 25 µM | > 25 µM | – | – |
| COc1ccc(-c2nc3cc(C(C)C)ccc3o2)cc1NC(=O)c1cccc([N+](=O)[O-])c1C [ND-15] | – | – | > 25 µM | > 25 µM |
| Cc1ccc(-c2nc3cc(O)ccc3o2)cc1[N+](=O)[O-] [ND-85] | – | – | > 25 µM | > 25 µM |
| O=c1cc(NC[C@H](O)[C@H](O)[C@H](O)CO)[nH]c(=O)[nH]1 [ND-100] | – | – | > 25 µM | > 25 µM |
| Cc1ccc(-c2nc3cc(C(C)C)ccc3o2)cc1NC(=O)c1ccc(F)c([N+](=O)[O-])c1 [ND-54] | – | – | 6.84 µM | > 25 µM |
| COc1ccc(C(=O)Nc2cc(-c3nc4ccccc4s3)ccc2C)cc1C(F)(F)F [ND-87] | – | – | 3.02 µM | > 25 µM |
| Cc1cc2nc(-c3ccc(C)c(N)c3)oc2cc1C [ND-59] | – | – | > 25 µM | > 25 µM |
| O=C(Nc1ccc(-c2ccccc2)cc1)Nc1ccc(N2CCN(C(=O)c3cccs3)CC2)cc1 [NA-72] | > 10 µM | > 10 µM | – | – |
| O=C(Nc1ccc(N2CCN(C(=O)c3cccs3)CC2)cc1)c1ccccc1Br [NA-67] | > 10 µM | > 10 µM | – | – |
| CCOc1ccc(C(=O)Nc2ccc(N3CCN(C(=O)c4cccs4)CC3)c(Cl)c2)cc1Br [NA-27] | > 25 µM | > 25 µM | – | – |
| O=C(Nc1ccc(N2CCN(C(=O)c3cccs3)CC2)c(Cl)c1)c1cc([N+](=O)[O-])ccc1N1CCOCC1 [NA-66] | > 10 µM | > 10 µM | – | – |
| Cc1cc2nc(-c3ccc(C)c(Nc4[nH]c(=O)[nH]c(=O)c4[N+](=O)[O-])c3)oc2cc1C [ND-56] | – | – | > 25 µM | > 25 µM |
| Cc1ccc(C(=O)Nc2cc(C(C)C)ccc2O)cc1[N+](=O)[O-] [ND-55] | – | – | > 25 µM | > 25 µM |
| O=C(c1cccs1)N1CCN(Cc2cn(Cc3ccccc3Cl)nn2)CC1 [NA-58] | > 25 µM | > 25 µM | – | – |
| O=C(c1cccs1)N1CCN(Cc2cn(Cc3ccc(Cl)cc3)nn2)CC1 [NA-56] | > 25 µM | > 25 µM | – | – |
